Measured values reported in US9718799B2, “3-aryl-4H-chromene-4-ones as antineoplastic agents for the treatment of cancer” (The University of Kentucky Research Foundation, priority 2015, dated 2017).

Tested on: PC3 prostate cancer cells
Assay: Cell proliferation assay in prostate cancer PC3 cells
Assay type: cell-based
Conditions: Homo sapiens, PC-3
Description: Cell Proliferation Assay:
PC3 prostate cancer cells were cultured in DMEM/F-12 HAM Mixture (Sigma D8437), 10% Fetal Bovine Serum (Atlanta Biological S11150). Before the treatment, 3.5×10^4 cells per well were split into 12-well plates. After 24 h, 10 μM of each compound was added to each well. DMSO was used as a control. This experiment was done in triplicate. Cell viability and number were analyzed using Vi-Cell XR Cell Viability Analyzer (Beckman Coulter).

Row | Molecule | inhibition at 10 µM [%]
1 | COc1ccccc1-c1coc2cc(OC)c(COC(C)=O)c(OC(C)=O)c2c1=O [Isoflavonoid 6a, 5-Acetoxy-6-(acetoxymethyl)-7-methoxy-3-(2-methoxyphenyl)-4H-chromen-4-one] | 17.1 ± 5.9
2 | COc1ccc(-c2coc3cc(OC)c(COC(C)=O)c(OC(C)=O)c3c2=O)cc1 [Isoflavonoid 6b, 5-Acetoxy-6-(acetoxymethyl)-7-methoxy-3-(4-methoxyphenyl)-4H-chromen-4-one] | 51.7 ± 5.7
3 | COc1ccc(-c2coc3c(COC(C)=O)c(OC)cc(OC(C)=O)c3c2=O)cc1 [Isoflavonoid 7b, 5-Acetoxy-8-(acetoxymethyl)-7-methoxy-3-(4-methoxyphenyl)-4H-chromen-4-one] | 20.2 ± 2
4 | COc1ccccc1-c1coc2c(COC(C)=O)c(OC(C)=O)ccc2c1=O [Isoflavonoid 7c, 7-(Acetoxy)-8-(acetoxymethyl)-3-(2-methoxyphenyl)-4H-chromen-4-one] | 20.6 ± 3.8
5 | COc1ccc(-c2c(C)oc3c(COC(C)=O)c(OC(C)=O)ccc3c2=O)cc1 [Isoflavonoid 7e, 7-(Acetoxy)-8-(acetoxymethyl)-3-(4-methoxyphenyl)-2-methyl-4H-chromen-4-one] | 98.2 ± 1.5

Same assay, conditions: Table 3; Diels-Alder adducts, inhibition of proliferation, PC3 cells, 10 μM

Row | Molecule | Inhibition at 10 μM (%)
6 | 3-(4-Methoxyphenyl)-2,11-methyl-6a,7,8,9a-tetrahydro-4H,6H-furo[2,3-b]pyrano[3,2-g]chromen-4-one [Isoflavonoid 25g] | 61 ± 2

Tested on: not given
Assay: not given
Conditions: not given

Row | Molecule | melting point
7 | COc1ccc(-c2coc3c(C)c(OC(C)=O)c(COC(C)=O)cc3c2=O)cc1 [Isoflavonoid 6c, [7-(Acetyloxy)-3-(4-methoxyphenyl)-8-methyl-4-oxo-4H-chromen-6-yl]methyl acetate] | 136 to 138 °C
8 | COc1ccc(-c2c(C)oc3c(COC(C)=O)c(OC(C)=O)ccc3c2=O)cc1 [Isoflavonoid 7e, 7-(Acetoxy)-8-(acetoxymethyl)-3-(4-methoxyphenyl)-2-methyl-4H-chromen-4-one] | 142 to 144 °C
9 | COc1ccc(-c2coc3c(C)c(O)c(CO)cc3c2=O)cc1 [Isoflavonoid 8c, 7-Hydroxy-6-(hydroxymethyl)-3-(4-methoxyphenyl)-8-methyl-4H-chromen-4-one] | 153 to 155 °C
10 | COCc1cc2c(=O)c(-c3ccc(OC)cc3)coc2c(C)c1O [Isoflavonoid 10c, 7-Hydroxy-6-(methoxymethyl)-3-(4-methoxyphenyl)-8-methyl-4H-chromen-4-one] | 143 to 145 °C
11 | COCc1c(O)ccc2c(=O)c(-c3ccc(OC)cc3)c(C)oc12 [Isoflavonoid 11e, 7-Hydroxy-8-(methoxymethyl)-3-(4-methoxyphenyl)-2-methyl-4H-chromen-4-one] | 215 to 217 °C (dec.)
12 | COc1ccc(-c2coc3c4c(ccc3c2=O)OC2OCCC2C4)cc1OC (stereo not shown) [Isoflavonoid 20b, 3-(3,4-Dimethoxyphenyl)-9,10,10a,11-tetrahydro-4H,7aH-furo[2,3-b]pyrano[2,3-f]chromen-4-one] | 193 to 195 °C
13 | O=c1c(-c2ccc3c(c2)OCCO3)coc2c3c(ccc12)OC1OCCC1C3 (stereo not shown) [Isoflavonoid 20d, 3-(2,3-Dihydro-1,4-benzodioxin-6-yl)-9,10,10a,11-tetrahydro-4H,7aH-furo[2,3-b]pyrano[2,3-f]chromen-4-one] | 188 to 189 °C
14 | Cc1oc2c3c(ccc2c(=O)c1-c1ccccc1)OC1OCCC1C3 (stereo not shown) [Isoflavonoid 20f, 2-Methyl-3-phenyl-9,10,10a,11-tetrahydro-4H,7aH-furo[2,3-b]pyrano[2,3-f]chromen-4-one] | 181 to 182 °C
15 | COc1ccc(-c2c(C)oc3c4c(ccc3c2=O)OC2OCCC2C4)cc1 (stereo not shown) [Isoflavonoid 20g, 3-(4-Methoxyphenyl)-2-methyl-9,10,10a,11-tetrahydro-4H,7aH-furo[2,3-b]pyrano[2,3-f]chromen-4-one] | 227 to 229 °C
16 | COc1ccc(-c2c(C)oc3c4c(ccc3c2=O)OC2OCCC2C4)cc1OC (stereo not shown) [Isoflavonoid 20h, 3-(3,4-Dimethoxyphenyl)-2-methyl-9,10,10a,11-tetrahydro-4H,7aH-furo[2,3-b]pyrano[2,3-f]chromen-4-one] | 217 to 219 °C
17 | Cc1oc2c3c(ccc2c(=O)c1-c1ccc(Cl)cc1)OC1OCCC1C3 (stereo not shown) [Isoflavonoid 20i, 3-(4-Chlorophenyl)-2-methyl-9,10,10a,11-tetrahydro-4H,7aH-furo[2,3-b]pyrano[2,3-f]chromen-4-one] | 266 to 268 °C
18 | Cc1oc2c3c(ccc2c(=O)c1-c1ccccc1)OC1OCCCC1C3 (stereo not shown) [Isoflavonoid 21f, 2-Methyl-3-phenyl-10,11,11a,12-tetrahydro-4H,7aH,9H-dipyrano[2,3-b:2′,3′-f]chromen-4-one] | 165 to 167 °C
19 | COc1ccc(-c2coc3c4c(ccc3c2=O)OC2=C(C4)C(=O)CC(C)(C)C2)cc1 [Isoflavonoid 22a, 3-(4-Methoxyphenyl)-9,9-dimethyl-8,9,10,12-tetrahydro-4H,11H-pyrano[2,3-a]xanthene-4,11-dione] | 223 to 225 °C
20 | CC1(C)CC(=O)C2=C(C1)Oc1ccc3c(=O)c(-c4ccc5c(c4)OCO5)coc3c1C2 [Isoflavonoid 22c, 3-(1,3-Benzodioxol-5-yl)-9,9-dimethyl-8,9,10,12-tetrahydro-4H,11H-pyrano[2,3-a]xanthene-4,11-dione] | 258 to 260 °C
21 | Cc1oc2c3c(ccc2c(=O)c1-c1ccccc1)OC1=C(C3)C(=O)CC(C)(C)C1 [Isoflavonoid 22f, 2,9,9-trimethyl-3-phenyl-8,9,10,12-tetrahydro-4H,11H-pyrano[2,3-a]xanthene-4,11-dione] | 265 to 266 °C
22 | COc1ccc(-c2c(C)oc3c4c(ccc3c2=O)OC2=C(C4)C(=O)CC(C)(C)C2)cc1 [Isoflavonoid 22g, 3-(4-Methoxyphenyl)-2,9,9-trimethyl-8,9,10,12-tetrahydro 4H,11H-pyrano[2,3-a]xanthene-4,11-dione] | 236 to 237 °C

Now from value to molecule:

Row | melting point | Molecule
23 | 210 to 211 °C | COc1ccc(-c2c(C)oc3c(CC4CCCC4=O)c(O)ccc3c2=O)cc1 (stereo not shown) [Isoflavonoid 23g, 7-Hydroxy-3-(4-methoxyphenyl)-2-methyl-8-[(2-oxocyclopentyl)methyl]-4H-chromen-4-one]
24 | 88 to 90 °C | COc1ccc(-c2c(C)oc3c(CC4CCCC4=O)c(O)ccc3c2=O)cc1OC (stereo not shown) [Isoflavonoid 23h, 3-(3,4-Dimethoxyphenyl)-7-hydroxy-2-methyl-8-[(2-oxocyclopentyl)methyl]-4H-chromen-4-one]
25 | 197 °C | O=c1c(-c2ccc3c(c2)OCO3)coc2c3c(ccc12)OC1(O)CCCCC1C3 (stereo not shown) [Isoflavonoid 24c, 3-(1,3-Benzodioxol-5-yl)-7a-hydroxy-8,9,10,11,11a,12-hexahydro-4H,7aH-pyrano[2,3-a]xanthen-4-one]
26 | 193 to 194 °C | COc1ccc(-c2c(C)oc3c4c(ccc3c2=O)OC2(O)CCCCC2C4)cc1OC (stereo not shown) [Isoflavonoid 24h, 3-(3,4-Dimethoxyphenyl)-7a-hydroxy-2-methyl-8,9,10,11,11a,12-hexahydro-4H,7aH-pyrano[2,3-a]xanthen-4-one]
27 | 230 to 232 °C | COc1ccc(-c2coc3c(C)c4c(cc3c2=O)CC2=C(CC(C)(C)CC2=O)O4)cc1 [Isoflavonoid 26a, 3-(4-Methoxyphenyl)-9,9,12-trimethyl-6,8,9,10-tetrahydro-4H,7H-pyrano[3,2-b]xanthene-4,7-dione]
28 | 270 to 272 °C | COc1ccc(-c2c(C)oc3c(C)c4c(cc3c2=O)CC2=C(CC(C)(C)CC2=O)O4)cc1 [Isoflavonoid 26g, 3-(4-Methoxyphenyl)-2,9,9,12-tetramethyl-6,8,9,10-tetrahydro-4H,7H-pyrano[3,2-b]xanthene-4,7-dione]
